Laboratory results taken from ChEMBL document CHEMBL1255236, “Hepatotoxicity observed in clinical trials of aplaviroc (GW873140)” (Antimicrob Agents Chemother, 2008).

Legend:
Rattus norvegicus [1] = assay: Hepatotoxicity in rat assessed as increase in liver ALT level at >500 mg/kg/day; assay type: toxicity, organism-based; settings: in vivo
[2] = tested on: Human immunodeficiency virus 1; assay: Antiviral activity against Human immunodeficiency virus 1 infected in human assessed as log reduction in HIV-1 RNA level at 600 mg/kg, BID after 10 days; assay type: functional
[3] = AUC (0 to 24 hrs) in Human immunodeficiency virus 1 infected human at 600 mg/kg, BID; assay type: ADME, organism-based; design: time < 24 hr, dose 600 mg/kg; settings: plasma
[4] = AUC (0 to 24 hrs) in Human immunodeficiency virus 1 infected human at 200 mg/kg, BID; assay type: ADME, organism-based; design: time < 24 hr, dose 200 mg/kg; settings: plasma
[5] = Half life in healthy human at 200 to 800 mg/kg, BID; assay type: ADME, organism-based; design: dose 200-800 mg/kg; settings: in vivo
[6] = AUC (0 to 24 hrs) in Human immunodeficiency virus 1 infected human at 800 mg/kg, QD; assay type: ADME, organism-based; design: time < 24 hr, dose 800 mg/kg; settings: plasma
[7] = AUC (0 to 24 hrs) in Human immunodeficiency virus 1 infected human at 800 mg/kg, BID; assay type: ADME, organism-based; design: time < 24 hr, dose 800 mg/kg; settings: plasma
Rattus norvegicus [8] = assay: Hepatotoxicity in rat assessed as increase in liver bilirubin level at >500 mg/kg/day; assay type: toxicity, organism-based; settings: in vivo
[9] = AUC (0 to 24 hrs) in Human immunodeficiency virus 1 infected human at 400 mg/kg, BID; assay type: ADME, organism-based; design: time < 24 hr, dose 400 mg/kg; settings: plasma
Monkey = assay: Hepatotoxicity in monkey assessed as increase in liver ALT level at 2000 mg/kg/day; assay type: toxicity, organism-based; settings: cercopithecidae, in vivo

AUC at 24 h [3]: 2100 ng·h/mL
AUC at 24 h [4]: 2010 ng·h/mL
half-life [5]: 3 h
AUC at 24 h [6]: 5840 ng·h/mL
AUC at 24 h [7]: 3410 ng·h/mL
AUC at 24 h [9]: 6060 ng·h/mL
Structure (SMILES): CCCCN1C(=O)[C@@H]([C@H](O)C2CCCCC2)NC(=O)C12CCN(Cc1ccc(Oc3ccc(C(=O)O)cc3)cc1)CC2 [APLAVIROC]
Activity (Rattus norvegicus [1]): Toxic
FC [2]: 1.66
Activity (Rattus norvegicus [8]): Toxic
Activity (Monkey): Non-toxic
